Measurements reported in PubChem BioAssay (NCI).
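Following 48 hours of exposure in 96-well plates, responses at five concentrations were used to interpolate endpoints linearly. GI50 is the concentration that inhibits growth by half. The concentration for full growth arrest is given as TGI.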

Key:
Test in all cases: DTP human tumour cell line panel, 48 h
[1] = system: HS 578T breast
[2] = system: M14 melanoma
[3] = system: TK-10 renal
[4] = system: SF-539 CNS
[5] = system: SF-268 CNS
[6] = system: K-562 leukemia
[7] = system: MOLT-4 leukemia
[8] = system: SN12C renal
[9] = system: SW-620 colon
[10] = system: MDA-MB-231 breast
[11] = system: CCRF-CEM leukemia
[12] = system: OVCAR-5 ovarian
[13] = system: SK-MEL-5 melanoma
[14] = system: EKVX NSCLC
[15] = system: SF-295 CNS
[16] = system: LOX IMVI melanoma
[17] = system: MCF7 breast
[18] = system: HCT-15 colon
[19] = system: RPMI-8226 leukemia
[20] = system: HCT-116 colon
[21] = system: SK-OV-3 ovarian
[22] = system: T-47D breast
[23] = system: DU-145 prostate
[24] = system: UACC-62 melanoma
[25] = system: SNB-19 CNS
[26] = system: U251 CNS
[27] = system: UACC-257 melanoma
[28] = system: HCC-2998 colon
[29] = system: HT29 colon
[30] = system: KM12 colon
[31] = system: PC-3 prostate
[32] = system: UO-31 renal
[33] = system: BT-549 breast
[34] = system: HOP-62 NSCLC
[35] = system: A549 NSCLC
[36] = system: HOP-92 NSCLC
[37] = system: NCI-H23 lung
[38] = system: RXF 393 renal
[39] = system: COLO 205 colon
[40] = system: NCI-H522 lung
[41] = system: A498 renal
[42] = system: NCI-H226 lung
[43] = system: CAKI-1 renal
[44] = system: ACHN renal
[45] = system: OVCAR-8 ovarian
[46] = system: SK-MEL-2 melanoma
[47] = system: SK-MEL-28 melanoma
[48] = system: 786-0 renal
[49] = system: IGROV1 ovarian
[50] = system: MALME-3M melanoma
[51] = system: OVCAR-3 ovarian
[52] = system: SNB-75 CNS
[53] = system: MDA-MB-435
[54] = system: OVCAR-4 ovarian
[55] = system: NCI-H460 lung

With `CC1SC(c2cccs2)N(NC(=O)C(O)c2ccccc2)C1=O` (stereo not given) the GI50 [1] was > 100 µM, the TGI [1] was > 100 µM and the GI50 [2] was > 100 µM. For the same molecule, the TGI [2] was > 100 µM, the GI50 [3] was > 100 µM and the TGI [3] was > 100 µM. The GI50 [4] was > 100 µM, the TGI [4] was > 100 µM and the GI50 [5] was > 100 µM. For the same molecule, the TGI [5] was > 100 µM, the GI50 [6] was > 100 µM and the TGI [6] was > 100 µM. For the same molecule, the GI50 [7] was > 100 µM, the TGI [7] was > 100 µM and the GI50 [8] was > 100 µM. The TGI [8] was > 100 µM, the GI50 [9] was > 100 µM and the TGI [9] was > 100 µM. The GI50 [10] was > 100 µM, the TGI [10] was > 100 µM and the GI50 [11] was > 100 µM. For the same molecule, the TGI [11] was > 100 µM, the GI50 [12] was > 100 µM and the TGI [12] was > 100 µM. The GI50 [13] was > 100 µM, the TGI [13] was > 100 µM and the GI50 [14] was > 100 µM. For the same molecule, the TGI [14] was > 100 µM, the GI50 [15] was > 100 µM and the TGI [15] was > 100 µM. The GI50 [16] was > 100 µM, the TGI [16] was > 100 µM and the GI50 [17] was > 100 µM. For the same molecule, the TGI [17] was > 100 µM, the GI50 [18] was > 100 µM and the TGI [18] was > 100 µM. The GI50 [19] was > 100 µM, the TGI [19] was > 100 µM and the GI50 [20] was > 100 µM. The TGI [20] was > 100 µM, the GI50 [21] was > 100 µM and the TGI [21] was > 100 µM. For the same molecule, the GI50 [22] was > 100 µM, the TGI [22] was > 100 µM and the GI50 [23] was > 100 µM. For the same molecule, the TGI [23] was > 100 µM, the GI50 [24] was > 100 µM and the TGI [24] was > 100 µM. For the same molecule, the GI50 [25] was > 100 µM, the TGI [25] was > 100 µM and the GI50 [26] was > 100 µM. For the same molecule, the TGI [26] was > 100 µM, the GI50 [27] was > 100 µM and the TGI [27] was > 100 µM. The GI50 [28] was > 100 µM, the TGI [28] was > 100 µM and the GI50 [29] was > 100 µM. For the same molecule, the TGI [29] was > 100 µM, the GI50 [30] was > 100 µM and the TGI [30] was > 100 µM. For the same molecule, the GI50 [31] was > 100 µM, the TGI [31] was > 100 µM and the GI50 [32] was > 100 µM. The TGI [32] was > 100 µM, the GI50 [33] was > 100 µM and the TGI [33] was > 100 µM. The GI50 [34] was > 100 µM, the TGI [34] was > 100 µM and the GI50 [35] was > 100 µM. For the same molecule, the TGI [35] was > 100 µM, the GI50 [36] was > 100 µM and the TGI [36] was > 100 µM. The GI50 [37] was > 100 µM, the TGI [37] was > 100 µM and the GI50 [38] was > 100 µM. The TGI [38] was > 100 µM, the GI50 [39] was > 100 µM and the TGI [39] was > 100 µM. For the same molecule, the GI50 [40] was > 100 µM, the TGI [40] was > 100 µM and the GI50 [41] was > 100 µM. The TGI [41] was > 100 µM, the GI50 [42] was > 100 µM and the TGI [42] was > 100 µM. For the same molecule, the GI50 [43] was > 100 µM, the TGI [43] was > 100 µM and the GI50 [44] was > 100 µM. The TGI [44] was > 100 µM, the GI50 [45] was > 100 µM and the TGI [45] was > 100 µM. For the same molecule, the GI50 [46] was > 100 µM, the TGI [46] was > 100 µM and the GI50 [47] was > 100 µM. The TGI [47] was > 100 µM, the GI50 [48] was > 100 µM and the TGI [48] was > 100 µM. For the same molecule, the GI50 [49] was > 100 µM, the TGI [49] was > 100 µM and the GI50 [50] was > 100 µM. The TGI [50] was > 100 µM, the GI50 [51] was > 100 µM and the TGI [51] was > 100 µM. For the same molecule, the GI50 [52] was > 100 µM, the TGI [52] was > 100 µM and the GI50 [53] was > 100 µM. The TGI [53] was > 100 µM, the GI50 [54] was > 100 µM and the TGI [54] was > 100 µM. The GI50 [55] was > 100 µM and the TGI [55] was > 100 µM.
